Data published in BindingDB's records for doi:10.1186/2191-2858-2-21 (University of The West Indies, 2012).

How the values were obtained:
Cytochrome P450 1A1 = biological target: T1, Cytochrome P450 1A1 (Homo sapiens, UniProt P04798); assay: CYP Inhibition Assay
T1 sequence (P04798 whole entry): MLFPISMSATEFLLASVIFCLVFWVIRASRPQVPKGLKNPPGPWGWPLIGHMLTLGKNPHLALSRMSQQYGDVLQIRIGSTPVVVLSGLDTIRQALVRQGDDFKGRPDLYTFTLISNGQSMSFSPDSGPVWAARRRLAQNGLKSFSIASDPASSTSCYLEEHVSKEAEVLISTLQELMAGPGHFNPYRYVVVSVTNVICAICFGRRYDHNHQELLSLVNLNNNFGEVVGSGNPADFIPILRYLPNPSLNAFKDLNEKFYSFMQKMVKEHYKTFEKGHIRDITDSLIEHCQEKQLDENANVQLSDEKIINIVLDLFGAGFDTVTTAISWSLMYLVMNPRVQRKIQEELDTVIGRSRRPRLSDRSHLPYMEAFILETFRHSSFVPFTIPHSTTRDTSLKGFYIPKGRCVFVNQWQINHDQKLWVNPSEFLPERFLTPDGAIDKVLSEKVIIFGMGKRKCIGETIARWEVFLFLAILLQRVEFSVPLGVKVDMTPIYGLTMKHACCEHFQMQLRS
Description: (§1) The test compounds were evaluated for their ability to inhibit the catlytic activity of human CYP1 enzymes by means of high throughput fluorometric detection assay conducted in 96-well microtitre plates.

Cytochrome P450 2C19 = Cytochrome P450 2C19 (Homo sapiens, UniProt P33261); assay: CYP Inhibition Assay
Description: as §1

Cytochrome P450 2C19, sequence (P33261 whole entry): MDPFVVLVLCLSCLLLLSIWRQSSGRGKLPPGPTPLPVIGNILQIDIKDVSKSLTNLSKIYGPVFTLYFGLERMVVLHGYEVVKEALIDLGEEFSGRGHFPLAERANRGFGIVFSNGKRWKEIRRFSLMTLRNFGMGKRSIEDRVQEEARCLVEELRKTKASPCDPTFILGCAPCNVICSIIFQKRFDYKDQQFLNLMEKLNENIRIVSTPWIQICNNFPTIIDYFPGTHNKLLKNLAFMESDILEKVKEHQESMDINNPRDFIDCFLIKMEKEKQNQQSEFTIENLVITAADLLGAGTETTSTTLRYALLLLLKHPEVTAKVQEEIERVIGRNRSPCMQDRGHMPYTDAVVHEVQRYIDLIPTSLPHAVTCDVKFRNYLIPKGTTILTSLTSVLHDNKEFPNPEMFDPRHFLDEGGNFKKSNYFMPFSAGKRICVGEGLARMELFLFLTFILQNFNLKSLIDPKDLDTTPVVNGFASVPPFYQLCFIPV

Q: What does the source list for `CC(C)(O)CCCC1(C)CC(=O)c2cc(O)c(Br)cc2O1` (configuration not stated) [PBQ1]?
A: IC50 (Cytochrome P450 1A1): 0.39 µM; IC50 (Cytochrome P450 2C19): 0.08 µM
